As usually defined, the IC50 is the concentration needed to halve the response being measured.

IC50 data for 17 compounds are collected here from ChEMBL document CHEMBL5726146, “Sulfone amide linked benzothiazole inhibitors of endothelial lipase” (2019).

SMILES strings stand for the structures.

The target in the experiment is T1, Endothelial lipase (Homo sapiens, UniProt Q9Y5X9).
T1 sequence (Q9Y5X9 whole entry): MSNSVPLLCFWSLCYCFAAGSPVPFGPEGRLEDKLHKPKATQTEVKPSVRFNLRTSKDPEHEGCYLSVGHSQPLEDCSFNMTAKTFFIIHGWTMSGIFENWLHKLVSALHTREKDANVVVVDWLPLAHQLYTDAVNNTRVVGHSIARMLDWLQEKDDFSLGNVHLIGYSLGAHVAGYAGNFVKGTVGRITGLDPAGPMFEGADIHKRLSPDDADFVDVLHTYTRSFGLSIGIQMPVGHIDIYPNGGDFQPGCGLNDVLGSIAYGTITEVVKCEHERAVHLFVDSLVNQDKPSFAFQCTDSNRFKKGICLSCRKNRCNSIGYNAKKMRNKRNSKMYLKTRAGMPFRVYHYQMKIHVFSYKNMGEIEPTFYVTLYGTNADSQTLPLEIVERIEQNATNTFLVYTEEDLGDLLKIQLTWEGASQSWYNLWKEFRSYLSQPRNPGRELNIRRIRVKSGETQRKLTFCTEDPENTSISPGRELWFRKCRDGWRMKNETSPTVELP
Briefly: Biological Activity: Endothelial lipase (EL) and hepatic lipase (HL) activities were measured using a fluorescent substrate, A10070, (Invitrogen, CA) doped into an artificial vesicle containing DMPG (Avanti Polar Lipids) as the excipient. Vesicles were prepared by combining 571 μL of 29 mM DMPG in a 1:1 mixture of MeOH and CHCl3 with 2000 μL of 1 mM A10070 in a 1:1 mixture of MeOH and CHCl3. The mixture was dried under nitrogen in multiple vials then resuspended in 20 mL total volume of 50 mM HEPES pH 8.0 buffer containing 50 mM NaCl and 0.2 mM EDTA. The sample was allowed to sit at room temperature for 15 min and then was sonicated 3×4 mins on ice with a Branson Sonicator using duty cycle 1. This preparation provides vesicles with a mole fraction of 0.11 for the FRET substrate.The enzymatic assay was measured using 384-well white Optiplates. Each well contained 20 μL of assay buffer (50 mM HEPES pH 8.0, 50 mM NaCl and 1 mM CaCl2) and 0.25 μL of a DMSO solution containing a compound of interest. EL or HL (10 μL) was added and allowed to incubate with the compound for 30 min at 37° C. The source of EL was conditioned media obtained from HT-1080 cells that were transformed using RAGE technology (Athersys) to overexpress endogenous EL, and HL was partially purified from conditioned media obtained from COS cells overexpressing HL. The reaction was started by the addition of 10 μL of a 1:10 dilution of vesicles. The final total reaction volume was […]. The reaction rates were measured on a Gemini plate reader with an excitation wavelength of 490 nm and an emission wavelength of 530 nm. Readings were taken over a period of 60 minutes, and the slope between 300 and 900 secs of the readout was used to calculate the rate of the reaction.
For `COCCS(=O)(=O)C(C(=O)NCC(=O)NC1CC1)c1nc2ccc(-c3ccc(C(N)=O)c(Cl)c3)cc2s1` (configuration not stated), the IC50 was 33 nM. `CS(=O)(=O)C(C(=O)NCC(=O)NC1CC1)c1nc2cc(-c3ccccc3)c(F)cc2s1` (configuration not stated): the IC50 is 4 nM. For `COCCS(=O)(=O)C(C(=O)NCC(=O)NC1CC1)c1nc2cc(-c3ccc(OC(C)C)nc3)ccc2s1` (configuration not stated), the IC50 was 11 nM. In the case of `COCCS(=O)(=O)C(C(=O)NCC(=O)NC1CC1)c1nc2ccc(-c3cccnc3C(F)(F)F)cc2s1` (configuration not stated), the IC50 was 37 nM. Take `COCCS(=O)(=O)C(C(=O)NCC(=O)NC1CC1)c1nc2ccc(-c3ccc(N4CCCC4)nc3)cc2s1` (configuration not stated): the IC50 is 118 nM. For `C[C@H]1CN(C(=O)c2ccc(-c3ccc4nc(C(C(=O)NCC(=O)NC5CC5)S(C)(=O)=O)sc4c3)cc2)CCO1` (some centres not stated) the value was 31 nM; for `O=C(CNC(=O)C(c1nc2ccc(-c3ccc(F)nc3)cc2s1)S(=O)(=O)C1CCOCC1)NC1CC1` (configuration not stated), 47 nM; for `CC(=O)Nc1ccc(-c2cc3sc(C(C(=O)NCC(=O)NC4CC4)S(C)(=O)=O)nc3cc2F)cc1` (configuration not stated), 9 nM. Take `COCCS(=O)(=O)C(C(=O)NCC(=O)NC1CC1)c1nc2cc(F)c(-c3ccc4c(c3)CCN4)cc2s1` (configuration not stated): the IC50 was 3 nM.

Consider `CS(=O)(=O)C(C(=O)NCC(=O)NC1CC1)c1nc2cc(F)c(-c3ccc(=O)n(-c4ccccc4)c3)cc2s1` (configuration not stated), for which the IC50 is 6 nM. As for `O=C(CNC(=O)C(c1nc2ccc(-c3cccnc3F)cc2s1)S(=O)(=O)c1ccccc1)NC1CC1` (configuration not stated), the IC50 was 102 nM. Consider `CS(=O)(=O)C(C(=O)NCC(=O)NC1CC1)c1nc2cc(F)c(-c3ccc(C(=O)NCCc4ccccc4)cc3)cc2s1` (configuration not stated), for which the IC50 was 1 nM.

For `Cn1nccc1-c1cc2sc(C(C(=O)NCC(=O)NC3CC3)S(C)(=O)=O)nc2cc1F` (configuration not stated), the IC50 is 26 nM.

As to `CS(=O)(=O)C(C(=O)NCC(=O)NC1CC1)c1nc2cc(F)c(-c3ccc4c(c3)CCCN4C(=O)Cc3c(F)cccc3F)cc2s1` (configuration not stated), the IC50 is 7 nM. For `COCCS(=O)(=O)C(C(=O)NCC(=O)NC1CC1)c1nc2cc(-c3ccc(C)nc3)ccc2s1` (configuration not stated) the value was 34 nM. For `COCCS(=O)(=O)C(C(=O)NCC(=O)NC1CC1)c1nc2c(F)cc(-c3cccnc3F)cc2s1` (configuration not stated), the IC50 is 106 nM.

Take `O=C(CNC(=O)C(c1nc2cc(F)c(-c3ccc(F)nc3)cc2s1)S(=O)(=O)c1ccccc1F)NC1CC1` (configuration not stated): the IC50 is 58 nM.
